According to PubChem BioAssay AID2060910 (Molecular Pharmacology Branch, DTP, NCI, 2025):
Each block holds one compound with its values, some of them ahead of it.

Test system: 242566-281-R-J2-PDC complex spheroid viability
Experiment: Anticancer human tumor 242566-281-R-J2-PDC patient-derived pancreatic carcinoma cell line growth inhibition [RAS]
Conditions: for IC50: curve of first compound; for viability, T/C: stronger effect = lower value
Source text: RAS pathway inhibitors in Combinations in Complex Spheroids
A high-throughput screen of multi-cell type tumor spheroids was designed to identify active combinations of RAS pathway inhibitors and targeted small molecules. Complex spheroids include a stromal component modeled by human endothelial cells (HUVEC) and fibroblasts modeled by human mesenchymal stem cells (MSCs). The concentration ranges selected for each drug and investigational agent were based upon clinically achievable concentrations if the clinical Cmax of the agent was known.
Compounds. The drugs and investigational agents: abemaciclib (NSC768073), cobimetinib (NSC768068), divarasib (GDC6063, NSC841802), docetaxel (NSC628503), GDC-1971 (RLY-1971, NSC841576), gemcitabine (NSC613327), inavolisib (NSC800729), ipatasertib (NSC767898), KB-0742 (NSC834161), MRTX-1133 (NSC836407), osimertinib (NSC779217), RMC-4630 (NSC839698), RMC-6236 (NSC851965), RMC-6291 (NSC852671), Ro-3306 (NSC812927), sapanisertib (NSC764658), SN-38 (NSC673596), staurosporine (NSC755774), SY5609 (NSC837396), and tovorafenib (DAY101, NSC766906), were obtained from the National Cancer Institute (NCI) Developmental Therapeutics Program Chemical Repository. The FDA-approved anticancer drug set is available from the NCI Developmental Therapeutics Program. […] The stock solutions were prepared in dimethyl sulfoxide (DMSO, Sigma-Aldrich, St. Louis, MO, cat. D2650) at 800-fold the tested concentration and stored at -70 degrees C prior to their use. All drugs and investigational agents were tested over a range starting from a high concentration at or near the clinical Cmax and decreasing in half-log increments. If the clinical Cmax for an agent had not been determined, the highest concentration tested was 10 microM.
Cell Culture. All cells were maintained in an incubator at 37 degrees C and 5% CO2 with 95% humidity. The PDC lines were cultured according to standard operating procedures established by the NCI PDMR. All PDCs were thawed and cultured in Matrigel-coated flasks prepared with a working solution of 1X Ham's F-12 nutrient mix, without supplementation (Invitrogen, Waltham, MA, cat. 11765054), 100 U/mL penicillin-streptomycin (Invitrogen, cat. 15140122), and 2.5% Matrigel (Corning Inc., Corning, NY, cat. 354248) for the first three passages. The 362531-283-R-J2-PDC and 782815-120-R-J1-PDC lines were cultured in 6C/Colon 1B media, which includes advanced DMEM/F-12 (Thermo Fisher Scientific, cat. 12634028), 10 mM HEPES (Thermo Fisher Scientific, cat. 15630080), 1X GlutaMAX supplement (Thermo Fisher Scientific, cat. 35050061), 0.1 mg/mL primocin (InvivoGen, San Diego, CA, cat. ant-pm-2), 10% defined fetal bovine serum, heat inactivated (HyClone Laboratories Inc., Logan, UT, cat. SH30070.03HI), 50% L-WRN conditioned media (ATCC, cat. CRL-3276), 1.25 mM N-Acetyl-L-cysteine (Sigma-Aldrich, cat. A9165), 10 mM nicotinamide (Sigma-Aldrich, cat. N0636), 1X B-27 supplement (Thermo Fisher Scientific, cat. 17504044), 1X N-2 supplement (Thermo Fisher Scientific, cat. 17502048), 50 ng/mL human EGF (Thermo Fisher Scientific, cat. PHG0311), and 10 microM Y-27632 dihydrochloride (Tocris Bioscience, cat. 1254). The K12877-001-R-J1-PDC line was cultured in 6I media, which includes all 6C/Colon 1B media plus 10 ng/mL human FGF-10 (PeproTech, cat. 100-26), 1 ng/mL human FGF-2 (PeproTech, cat. 100-18B), 1 µM prostaglandin E2 (Tocris Bioscience, cat. 2296), […] hydrocortisone (Sigma-Aldrich, cat. H4001), and […] bovine insulin (Sigma-Aldrich, cat. I6634). The K86415-001-R-J1-PDC line was cultured in 6D media, which includes all 6C/Colon 1B media components minus the L-WRN conditioned media. The 485176-168-R4-J1-PDC was cultured in PANC media, which includes all 6C/Colon 1B media plus 100 ng/mL human FGF-10 (PeproTech, cat. 100-26), 500 nM SB-431542 (Selleckchem, cat. S1067), and 10 nM gastrin (Tocris Bioscience, cat. 3006). […]

[1] = second compound 0.0316 µM, first compound 0.0316 µM
[2] = second compound 0.0316 µM, first compound 0.1 µM
[3] = second compound 0.0316 µM, first compound 0.316 µM
[4] = second compound 0.0316 µM, first compound 1 µM
[5] = second compound 0.0316 µM, first compound 3.16 µM
[6] = second compound 0.0316 µM, first compound 10 µM
[7] = second compound 0.1 µM, first compound 0.0316 µM
[8] = second compound 0.1 µM, first compound 0.1 µM
[9] = second compound 0.1 µM, first compound 0.316 µM
[10] = second compound 0.1 µM, first compound 1 µM
[11] = second compound 0.1 µM, first compound 3.16 µM
[12] = second compound 0.1 µM, first compound 10 µM
[13] = second compound 0.316 µM, first compound 0.0316 µM
[14] = second compound 0.316 µM, first compound 0.1 µM
[15] = second compound 0.316 µM, first compound 0.316 µM
[16] = second compound 0.316 µM, first compound 1 µM
[17] = second compound 0.316 µM, first compound 3.16 µM
[18] = second compound 0.316 µM, first compound 10 µM
[19] = second compound 1 µM, first compound 0.0316 µM
[20] = second compound 1 µM, first compound 0.1 µM
[21] = second compound 1 µM, first compound 0.316 µM
[22] = second compound 1 µM, first compound 1 µM
[23] = second compound 1 µM, first compound 3.16 µM
[24] = second compound 1 µM, first compound 10 µM
[25] = second compound 3.16 µM, first compound 0.0316 µM
[26] = second compound 3.16 µM, first compound 0.1 µM
[27] = second compound 3.16 µM, first compound 0.316 µM
[28] = second compound 3.16 µM, first compound 1 µM
[29] = second compound 3.16 µM, first compound 3.16 µM
[30] = second compound 3.16 µM, first compound 10 µM
[31] = second compound 10 µM, first compound 0.0316 µM
[32] = second compound 10 µM, first compound 0.1 µM
[33] = second compound 10 µM, first compound 0.316 µM
[34] = second compound 10 µM, first compound 1 µM
[35] = second compound 10 µM, first compound 3.16 µM
[36] = second compound 10 µM, first compound 10 µM
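Also: spheroids exposed to compound for 7 days before readout.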
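For viability, T/C in this document: 100% = DMSO vehicle control wells.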

- IC50 (second compound 0.0316 µM): 2610 nM
- IC50 (second compound 0.1 µM): 1890 nM
- IC50 (second compound 0.316 µM): 1450 nM
- IC50 (second compound 1 µM): 893 nM
- IC50 (second compound 3.16 µM): 1220 nM
- IC50 (second compound 10 µM): 1170 nM
Compound: CCC(CC)c1cc(NC2CCC(N)C2)n2nccc2n1 (stereo unspecified) + C#Cc1c(F)ccc2cc(O)cc(-c3ncc4c(N5CC6CCC(C5)N6)nc(OCC56CCCN5CC(F)C6)nc4c3F)c12
- viability, T/C [1]: 85.9%
- viability, T/C [2]: 109%
- viability, T/C [3]: 107%
- viability, T/C [4]: 88.9%
- viability, T/C [5]: 42.2%
- viability, T/C [6]: 1.05%
- viability, T/C [7]: 79.1%
- viability, T/C [8]: 92.1%
- viability, T/C [9]: 84.7%
- viability, T/C [10]: 69.3%
- viability, T/C [11]: 33.9%
- viability, T/C [12]: 0.89%
- viability, T/C [13]: 83.6%
- viability, T/C [14]: 85.5%
- viability, T/C [15]: 73.3%
- viability, T/C [16]: 63.4%
- viability, T/C [17]: 26.3%
- viability, T/C [18]: 0.98%
- viability, T/C [19]: 68.2%
- viability, T/C [20]: 67.6%
- viability, T/C [21]: 58.5%
- viability, T/C [22]: 50.6%
- viability, T/C [23]: 14.8%
- viability, T/C [24]: 0.85%
- viability, T/C [25]: 58%
- viability, T/C [26]: 60.2%
- viability, T/C [27]: 56.1%
- viability, T/C [28]: 58.6%
- viability, T/C [29]: 11.1%
- viability, T/C [30]: 0.86%
- viability, T/C [31]: 59.8%
- viability, T/C [32]: 54.8%
- viability, T/C [33]: 52.3%
- viability, T/C [34]: 58.1%
- viability, T/C [35]: 11.5%
- viability, T/C [36]: 0.55%

- IC50 (second compound 0.0316 µM): 608 nM
- IC50 (second compound 0.1 µM): 336 nM
- IC50 (second compound 0.316 µM): 184 nM
- IC50 (second compound 1 µM): 61.2 nM
- IC50 (second compound 3.16 µM): < 31.6 nM
- IC50 (second compound 10 µM): < 31.6 nM
Compound: Cc1nc(N2CCC3(CC2)COC(C)C3N)c(CO)nc1Sc1ccnc(N)c1Cl (stereo unspecified) + C#Cc1c(F)ccc2cc(O)cc(-c3ncc4c(N5CC6CCC(C5)N6)nc(OCC56CCCN5CC(F)C6)nc4c3F)c12
- viability, T/C [1]: 69.6%
- viability, T/C [2]: 81%
- viability, T/C [3]: 62.2%
- viability, T/C [4]: 40.9%
- viability, T/C [5]: 37.8%
- viability, T/C [6]: 43.5%
- viability, T/C [7]: 80.3%
- viability, T/C [8]: 65.8%
- viability, T/C [9]: 51.1%
- viability, T/C [10]: 43%
- viability, T/C [11]: 34.5%
- viability, T/C [12]: 43%
- viability, T/C [13]: 69.9%
- viability, T/C [14]: 54.3%
- viability, T/C [15]: 47.1%
- viability, T/C [16]: 38.9%
- viability, T/C [17]: 37%
- viability, T/C [18]: 36.5%
- viability, T/C [19]: 58.1%
- viability, T/C [20]: 45.8%
- viability, T/C [21]: 36.6%
- viability, T/C [22]: 34.6%
- viability, T/C [23]: 31.2%
- viability, T/C [24]: 41.1%
- viability, T/C [25]: 48.4%
- viability, T/C [26]: 49.9%
- viability, T/C [27]: 40.9%
- viability, T/C [28]: 35.1%
- viability, T/C [29]: 42.8%
- viability, T/C [30]: 44.5%
- viability, T/C [31]: 50%
- viability, T/C [32]: 46.6%
- viability, T/C [33]: 39.4%
- viability, T/C [34]: 42.9%
- viability, T/C [35]: 41.4%
- viability, T/C [36]: 38.4%

- IC50 (second compound 0.0316 µM): 163 nM
- IC50 (second compound 0.1 µM): 52.4 nM
- IC50 (second compound 0.316 µM): < 31.6 nM
- IC50 (second compound 1 µM): < 31.6 nM
- IC50 (second compound 3.16 µM): < 31.6 nM
- IC50 (second compound 10 µM): < 31.6 nM
Compound: NC1c2ccccc2OC12CCN(c1cnc3c(N4CCCc5ncccc54)n[nH]c3n1)CC2 (stereo unspecified) + C#Cc1c(F)ccc2cc(O)cc(-c3ncc4c(N5CC6CCC(C5)N6)nc(OCC56CCCN5CC(F)C6)nc4c3F)c12
- viability, T/C [1]: 72.3%
- viability, T/C [2]: 56.2%
- viability, T/C [3]: 41.6%
- viability, T/C [4]: 33.1%
- viability, T/C [5]: 29.7%
- viability, T/C [6]: 22.9%
- viability, T/C [7]: 52.3%
- viability, T/C [8]: 49%
- viability, T/C [9]: 36.8%
- viability, T/C [10]: 28.4%
- viability, T/C [11]: 34.1%
- viability, T/C [12]: 20.3%
- viability, T/C [13]: 40.6%
- viability, T/C [14]: 43%
- viability, T/C [15]: 36.1%
- viability, T/C [16]: 35.7%
- viability, T/C [17]: 31.8%
- viability, T/C [18]: 17.3%
- viability, T/C [19]: 32.2%
- viability, T/C [20]: 37.8%
- viability, T/C [21]: 36.3%
- viability, T/C [22]: 29%
- viability, T/C [23]: 34%
- viability, T/C [24]: 18.7%
- viability, T/C [25]: 35.2%
- viability, T/C [26]: 38.1%
- viability, T/C [27]: 39.5%
- viability, T/C [28]: 33.7%
- viability, T/C [29]: 34.9%
- viability, T/C [30]: 16.2%
- viability, T/C [31]: 38.1%
- viability, T/C [32]: 36.9%
- viability, T/C [33]: 39.6%
- viability, T/C [34]: 33%
- viability, T/C [35]: 35.5%
- viability, T/C [36]: 10.4%
